Here are results for seven compounds from ChEMBL document CHEMBL2073778, “Identification of lactate as a driving force for prostanoid transport by prostaglandin transporter PGT” (Am J Physiol Renal Physiol, 2002).

The structures appear in SMILES notation.

For the experiment, the target named is Solute carrier organic anion transporter family member 2A1 (Homo sapiens, UniProt Q92959). In words: TP_TRANSPORTER: inhibition of PGE2 uptake in PGT-expressing HeLa cells. In kind it is functional, cell-based.
By Ki is commonly meant the dissociation constant of the complex between target and ligand, obtained from inhibition or displacement. `C[C@@H](O)C(=O)O` [D-LACTIC ACID] displayed a Ki of 48 mM.

`CC(=O)C(=O)O` [PYRUVATE]: the affinity corresponds to a Ki of 26 mM.

Turning to `O=P(O)(O)OC[C@H]1O[C@@H](O)[C@H](O)[C@@H](O)[C@@H]1O`, the Ki came out at 31 mM.

`C=C(OP(=O)(O)O)C(=O)O` [PHOSPHOENOLPYRUVATE] showed a Ki of 13 mM.

For the compound `O=C[C@H](O)COP(=O)(O)O`, the Ki worked out at 15 mM.

For the compound `O=P(O)(O)OC[C@H]1O[C@@](O)(COP(=O)(O)O)[C@@H](O)[C@@H]1O` [FRUCTOSE 1,6-DIPHOSPHATE], the Ki was determined as 51 mM.

`O=C(OP(=O)(O)O)C(O)COP(=O)(O)O` (configuration not stated) displayed a Ki of 57 mM.
